# From patent US11685766B2, “14-3-3 targeting peptides for cancer treatment” (Creighton University, priority 2019, dated 2023)
# Several values for one entry are separate records, joined by “and”; a condition that tells them apart may be missing. Equal values may be shown once. Read-outs that look alike come from different tables or passages of the source. Peptide text beside a SMILES is read from it.
# Tested on: SCC12B.2 cells
# Type: cell-based, human
# Protocol: Human skin cancer cell lines (SCC12B.2, SCC13, SRB12) were maintained in Dulbecco's modified Eagle's medium (DMEM) (Invitrogen, Carlsbad, Calif., USA) supplemented with 1% penicillin (10 000 U/ml)-streptomycin (10 000 μg/ml) (PenStrep) (Invitrogen) and 10% fetal bovine serum (Gemini Bio-Products, Sacramento, Calif., USA) at 37° C. and 5% CO2. Normal human epidermal keratinocytes (nHEK) (Thermo Scientific, Waltham, Mass., USA) isolated from neonatal foreskin were cultured in EpiLife medium (Invitrogen) supplemented with human keratinocyte growth supplement (Invitrogen) and 1% PenStrep (Invitrogen). Cells were transfected with control pcDNA or pcDNA3.1-HA-14-3-3ε (Addgene plasmid #48797; http://n2t.net/addgene:48797; RRID:Addgene_48797) using Lipofectamine/Plus reagents (Life Technologies, Carlsbad, Calif., USA) or with siRNA targeting 14-3-3ε (Dharmacon, Lafayette, Colo., USA), 14-3-3γ (Dharmacon), 14-3-3ζ, (Dharmacon), Survivin (Cell Signaling, Danvers, Mass., USA), Akt (Dharmacon) or control siRNA (Santa Cruz Biotechnology, Dallas, Tex., USA) using siQuest transfection reagents (Mirus Bio, Madison, Wis., USA) or treated with Akt inhibitor GSK690693 (Tocris Bioscience, Bristol, United Kingdom) or cell cycle inhibitor 5-Fluorouracil (5-FU) (Thermo Fisher) resuspended in DMSO.
# To determine the half maximal inhibitory concentration (IC50) for ES1P2 in SCC12B.2 and nHEK cells, cells were plated in a 96-well plate at a density of 6×10^3 cells/well. Twenty-four hours after plating, cells were treated with increasing concentrations of ES1P2 (0-75 μM) in Opti MEM medium supplemented with reduced serum (Invitrogen) for 4 consecutive days. ES1P2 peptide was resuspended fresh, daily in 25 mM Tris buffer (pH 7.5). Neutral Red Cell Viability assays were performed, where absorbance was measured using a Cytation 5 multi-mode plate reader (BioTek). The experiment was repeated three separate times with 4 replicate wells per experiment to obtain an average IC50 value.
# Carcinoma human cell lines (SCC12B.2 and SCC13) were maintained in Dulbecco's modified Eagle's medium (DMEM) (Invitrogen, Carlsbad, Calif., USA) supplemented with 1% penicillin (10 000 U/ml)-streptomycin (10 000 μg/ml) (PenStrep) (Invitrogen) and 10% fetal bovine serum (Gemini Bio-Products, Sacramento, Calif., USA) at 37° C. and 5% CO2. Primary normal human epidermal keratinocytes (nHEK) (Thermo Fisher Scientific, Waltham, Mass., USA) isolated from neonatal foreskin were maintained in EpiLife medium (Invitrogen) supplemented with human keratinocyte growth supplement (HKGS) and 1% PenStrep. nHEK cells were not passaged more than twice before experiments. Cells were treated with CDC25A inhibitor NSC663284 (Tocris Bioscience, Bristol, United Kingdom) suspended in DMSO, transfected with wild type CDC25A or control plasmid using Lipofectamine/Plus transfection reagents (Life Technologies, Carlsbad, Calif., USA) or transfected with siRNA targeting 14-3-3 ε or control siRNA (Santa Cruz Biotechnology, Dallas, Tex., USA) using siQuest transfection reagents (Mirus Bio, Madison, Wis., USA).
# To determine the half maximal inhibitory concentration (IC50) for pS and pT in SCC12B.2 cells, cells were plated in a 96-well plate at a density of 6×10^3 cells/well. […] Neutral Red Cell Viability assays were performed, where absorbance was measured using a Cytation 5 multi-mode plate reader (BioTek). […]
Structure (SMILES),IC50 [µM],"SCC cells alive (20 μM, alone, FIG. 1D) [% alive]","IC50 (SCC12B.2 cells, Neutral Red, treated 4 consecutive days, 0-75 μM, read-out: IC50 in SCC cells (cell viability dose response))"
"NCCCC[C@H](NC(=O)[C@H](Cc1c[nH]c2ccccc12)NC(=O)[C@H](Cc1ccc(O)cc1)NC(=O)[C@@H](N)Cc1c[nH]c2ccccc12)C(N)=O [ES1P2, Trp-Tyr-Trp-Lys-NH2] (H-WYWK-NH2)",20.6,62,
"CC(=O)N[C@@H](CCCNC(=N)N)C(=O)N[C@H](C(=O)N[C@@H](CCCCN)C(=O)N[C@@H](CO)C(=O)N[C@@H](CCCNC(=N)N)C(=O)N[C@H](C(=O)N[C@@H](Cc1c[nH]c2ccccc12)C(=O)N[C@@H](C)C(=O)NCC(=O)N[C@@H](CCC(=O)O)C(=O)N[C@@H](CCCCN)C(=O)N[C@@H](CO)C(=O)N[C@@H](CCCCN)C(=O)N[C@@H](CCCNC(=N)N)C(N)=O)[C@@H](C)OP(=O)(O)O)[C@@H](C)O [pT, Ac-Arg-Thr-Lys-Ser-Arg-Thr(PO3^2−)-Trp-Ala-Gly-Glu-Lys-Ser-Lys-Arg-NH2] (HELM PEPTIDE1{[ac].R.T.K.S.R.[C[C@@H](OP(=O)(O)O)[C@H](N[*:1])C(=O)[*:2]].W.A.G.E.K.S.K.R.[am]}$$$$V2.0)",,,22.1 µM and 22.6 µM
"CSCC[C@H](NC(=O)[C@H](CCCNC(=N)N)NC(=O)[C@@H]1CCCN1C(=O)[C@H](C)NC(=O)[C@H](COP(=O)(O)O)NC(=O)[C@H](CC(N)=O)NC(=O)[C@H](CCC(N)=O)NC(=O)[C@H](CCCNC(=N)N)NC(=O)[C@H](CCC(N)=O)NC(=O)[C@@H](NC(C)=O)[C@@H](C)O)C(=O)N[C@@H](CC(C)C)C(=O)N[C@@H](CO)C(=O)N[C@@H](CO)C(=O)N[C@@H](CC(N)=O)C(N)=O [pS, Ac-Thr-Gln-Arg-Gln-Asn-Ser-(PO3^2−)-Ala-Pro-Arg-Met-Leu-Ser-Ser-Asn-NH2] (HELM PEPTIDE1{[ac].T.Q.R.Q.N.[O=C([C@H](COP(=O)(O)O)N[*:1])[*:2]].A.P.R.M.L.S.S.N.[am]}$$$$V2.0)",29,,
